Counter-ions that a name gives are not always drawn.
Molecular target: T1, aromatase (Rattus norvegicus, UniProt P22443)
T1 construct: ovarian microsomes are obtained from rats treated with pregnant mares serum gonadotropin; from tissue; host or cells: ovarian microsomes of rats treated with pregnant mares serum gonadotropin
T1 sequence (P22443 1-508): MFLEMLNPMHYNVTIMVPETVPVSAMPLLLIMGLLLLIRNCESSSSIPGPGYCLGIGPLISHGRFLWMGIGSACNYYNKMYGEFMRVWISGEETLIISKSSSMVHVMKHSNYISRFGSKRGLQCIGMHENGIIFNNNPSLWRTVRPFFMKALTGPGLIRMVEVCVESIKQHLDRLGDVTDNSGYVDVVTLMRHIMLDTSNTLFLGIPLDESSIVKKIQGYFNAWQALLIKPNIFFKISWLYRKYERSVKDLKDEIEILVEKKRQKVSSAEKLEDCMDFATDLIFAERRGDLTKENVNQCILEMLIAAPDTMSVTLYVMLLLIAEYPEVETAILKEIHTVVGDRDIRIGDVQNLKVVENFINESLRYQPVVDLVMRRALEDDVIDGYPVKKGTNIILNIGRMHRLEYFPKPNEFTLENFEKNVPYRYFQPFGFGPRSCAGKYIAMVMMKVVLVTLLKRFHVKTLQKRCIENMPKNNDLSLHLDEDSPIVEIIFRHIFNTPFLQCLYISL
Test: Aromatase inhibition in the rat ovarian microsome assay
Type: biochemical
Conditions: EC50: concentration required to achieve 50% inhibition of aromatase activity, substrate (androstenedione) concentration 0.1 μM
Method: In this test system, ovarian microsomes are obtained from rats treated with pregnant mares serum gonadotropin. Test compounds are added to reaction vials containing 0.1 μM 4-androstene-3,17-dione, 100,000 dpm 1,2[^3 H]-androstenedione, the microsomes and a NADPH generating system. The concentrations of the inhibitors tested ranged between 0.005 and 10 μM.

Row | Structure (SMILES) | EC50 [nM]
1 | C=C(c1ccccc1OCc1cccc(Cl)c1)n1ccnc1 [1-[1-(2-[(3-chlorophenyl)methoxy]phenyl)ethenyl]-1H--imidazole hydrochloride] | 165
2 | Clc1ccc(Cn2cncn2)cc1 [1-(4-chlorobenzyl)-1H--1,2,4-triazole] | > 5000
3 | Fc1ccccc1Cn1ccnc1 [1-[(2-fluorophenyl)methyl]-1H--imidazole nitrate] | 2650
4 | c1ccc(C2(n3ccnc3)CCCCC2)cc1 [1-(1-phenylcyclohexyl)-1H--imidazole] | 93
5 | c1ccc(Cn2ccnc2)cc1 [1-benzylimidazole] | 2800
6 | Clc1ccc(Cn2ccnc2)c(Cl)c1 [1-[(2,4-dichlorophenyl)methyl]-1H--imidazole hydrochloride] | 730
7 | COc1ccccc1Cn1ccnc1 [1-[(2-methoxyphenyl)methyl]-1H--imidazole hydrochloride] | 2100
8 | Clc1ccccc1C(c1cccnc1)(c1ccccc1Cl)n1cncn1 [3-[bis(2-chlorophenyl)-1H--1,2,4-triazol-1-ylmethyl]pyridine] | 720
9 | FC(F)(F)c1ccccc1Cn1ccnc1 [1-[(2-trifluoromethylphenyl)methyl]-1H--imidazole hydrochloride] | 1750
10 | Clc1cccc(Cn2ccnc2)c1 [1-(3-chlorobenzyl)imidazole] | 3600
11 | Clc1ccc(Cn2ccnc2)cc1 [1-(4-chlorobenzyl)imidazole hydrochloride] | 450
12 | COc1ccc(Cn2ccnc2)cc1 [1-[(4-methoxyphenyl)methyl]-1H--imidazole hydrochloride] | 2500
13 | CC(c1ccccc1)n1ccnc1 (stereo not drawn) [1-(1-phenylethyl)-1H--imidazole hydrochloride] | 1050
14 | Cc1nccn1C(c1ccccc1)(c1ccccc1)c1ccccc1 [2-methyl-1-tritylimidazole] | 1300
15 | Fc1ccc(C(c2ccc(F)cc2)n2cncn2)cc1 [1-[bis(4-fluorophenyl)methyl]-1H--1,2,4-triazole] | 94
16 | CC(C)C(c1cccc2ccccc12)n1ccnc1 (stereo not drawn) [1-[2-methyl-1-(1-naphthalenyl)propyl]-1H--imidazole nitrate] | 410
17 | O=[N+]([O-])c1cccc(Cn2ccnc2)c1 [1-[(3-nitrophenyl)methyl]-1H--imidazole hydrochloride] | 1130
18 | COc1cccc(Cn2ccnc2)c1 [1-[(3-methoxyphenyl)methyl]-1H--imidazole ethanedioate] | 1250
19 | Cc1ccccc1Cn1ccnc1 [1-[(2-methylphenyl)methyl]-1H--imidazole hydrochloride] | 1500
20 | Clc1ccccc1Cn1ccnc1 [1-(2-chlorobenzyl)imidazole hydrochloride] | 3500
21 | Clc1ccc(C(c2ccccc2)(c2ccc(Cl)cc2)n2cncn2)cc1 [1-[bis(4-chlorophenyl)phenylmethyl]-1H--1,2,4-triazole] | 110
22 | c1ccc(C(c2ccccc2)(c2ccccc2)n2cncn2)cc1 [1-trityl-1H--1,2,4-triazole] | 310

Further lines, results first:

Row | EC50 [nM] | Structure (SMILES)
23 | 30 | FC(F)(F)c1ccc(C(c2ccc(Cl)cc2)(c2cncnc2)n2ccnc2)cc1 (stereo not drawn) [5-[(4-chlorophenyl)-1H--imidazol-1-yl(4-trifluoromethylphenyl)methyl]pyrimidine]
24 | 390 | FC(F)(F)c1cccc(Cn2ccnc2)c1 [1-[(3-trifluoromethylphenyl)methyl]-1H--imidazole hydrochloride]
25 | 80 | Fc1ccc(C(c2ccc(Cl)cc2)n2cnnc2)cc1 (stereo not drawn) [4-[(4-chlorophenyl)(4-fluorophenyl)methyl]-4H--1,2,4-triazole]
26 | < 50 | CCOc1ccccc1C(C)n1ccnc1 (stereo not drawn) [1-[1-(2-ethoxyphenyl)ethyl]-1H--imidazole nitrate]
27 | 160 | Clc1ccc(Cl)c(Cn2ccnc2)c1 [1-[(2,5-dichlorophenyl)methyl]-1H--imidazole hydrochloride]
28 | 270 | Clc1ccc(C(c2ccc(Cl)cc2)(c2ccc(Cl)cc2)n2ccnc2)cc1 [1-tris(4-chlorophenyl)methyl-1H--imidazole]
29 | < 50 | C#CC(c1ccc(Cl)cc1)(c1ccc(Cl)cc1)n1ccnc1 [1-[1,1-bis(4-chlorophenyl)-2-propynyl]-1H--imidazole]
30 | 86 | c1ccc(CCOc2ccccc2Cn2ccnc2)cc1 [1-[(2-[2-phenylethoxy]phenyl)methyl]-1H--imidazole nitrate]
31 | 100 | CCOc1ccccc1C(c1ccccc1)n1ccnc1 (stereo not drawn) [1-[(2-ethoxyphenyl)phenylmethyl]-1H--imidazole nitrate]
32 | 69 | Clc1ccc(C(c2ccccc2)(c2ccccc2)n2ccnc2)cc1 [1-[(4-chlorophenyl)diphenylmethyl)-1H--imidazole]
33 | < 50 | Fc1ccc(C(c2ccc(Br)cc2)n2cncn2)cc1 (stereo not drawn) [1-[(4-bromophenyl)(4-fluorophenyl)methyl]-1H--1,2,4-triazole]
34 | 95 | Clc1ccc(C(c2ccccc2)(c2ccccc2)n2cncn2)cc1 [1-[(4-chlorophenyl)diphenylmethyl]-1H--1,2,4-triazole]
35 | 120 | Cc1nccn1C(c1ccccc1)(c1ccccc1)c1ccncc1 [4-[(2-methyl-1-imidazol-1-yl)diphenylmethyl]pyridine]
36 | 240 | COc1ccc(C(c2ccccc2)(c2ccc(OC)cc2)n2cncn2)cc1 [1-[bis(4-methoxyphenyl)phenylmethyl]-1H--1,2,4-triazole]
37 | 110 | c1ccc(C2(n3ccnc3)CCCCCC2)cc1 [1-(1-phenylcycloheptyl)-1H--imidazole]
38 | 125 | CCCC(c1ccccc1OCc1ccc(Cl)cc1Cl)n1ccnc1 (stereo not drawn) [1-[1-(2-[2,4-dichlorobenzyloxy]phenyl)butyl]-1H--imidazole nitrate]
39 | < 50 | Fc1ccc(C(c2ccc(Cl)cc2)n2cncn2)cc1 (stereo not drawn) [1-[(4-chlorophenyl)(4-fluorophenyl)methyl]-1H--1,2,4-triazole]
40 | 64 | COc1ccc(C(c2ccccc2)(c2ccc(OC)cc2)n2ccnc2)cc1 [1-[α,α-bis(4-methoxyphenyl)benzyl]imidazole]
41 | < 50 | c1ccc(C(c2ccccc2)(c2ccccn2)n2ccnc2)cc1 [2-(1H--imidazol-1-yldiphenylmethyl)pyridine]
42 | 80 | Cc1nccn1C(c1ccccc1)(c1ccc(F)cc1)c1ccc(F)cc1 [1-[bis(4-fluorophenyl)phenylmethyl]-2-methyl-1H--imidazole]
43 | 270 | Cc1nccn1C(c1ccc(Cl)cc1)(c1ccc(Cl)cc1)c1ccc(Cl)cc1 [1-tris(4-chlorophenyl)methyl-2-methyl-1H--imidazole]
44 | 86 | Clc1ccc(C(c2cccnc2)(c2ccccc2Cl)n2ccnc2)cc1 (stereo not drawn) [3-[(2-chlorophenyl)(4-chlorophenyl)-1H--imidazol-1-ylmethyl]pyridine]
45 | 330 | c1ccc2c(Cn3ccnc3)cccc2c1 [1-(1-naphthalenylmethyl)-1H--imidazole hydrochloride]
46 | 195 | CSc1ccc(C(c2ccccc2)(c2cccnc2)n2cncn2)cc1 (stereo not drawn) [3-([4-(methylthio)phenyl]phenyl-1H--1,2,4-triazol-1-ylmethyl)pyridine]
47 | 210 | Clc1ccc(Cl)c(C(c2cccnc2)(c2cc(Cl)ccc2Cl)n2ccnc2)c1 [3-(bis[2,5-dichlorophenyl]-1H--imidazol-1-ylmethyl)pyridine]
48 | 100 | CC(C)(C)C(c1ccc(Cl)cc1)(c1cccnc1)n1ccnc1 (stereo not drawn) [3-(α-tert-butyl-4-chloro-α-imidazol-1-ylbenzyl)pyridine]
49 | 305 | Clc1ccccc1C(c1cccnc1)(c1ccccc1Cl)n1ccnc1 [3-[bis(2-chlorophenyl)-1H--imidazol-1-ylmethyl]pyridine]
50 | 140 | Clc1ccc(Cn2ccnc2)cc1 [1-(4-chlorobenzyl)-1H--imidazole]
51 | 110 | Clc1cc(Cl)cc(Cn2ccnc2)c1 [1-[(3,5-dichlorophenyl)methyl]-1H--imidazole hydrochloride]
52 | 190 | FC(F)(F)c1ccc(Cn2ccnc2)cc1 [1-[(4-trifluoromethylphenyl)methyl]-1H--imidazole ethanedioate]

System: estrogen synthesis
Test: Estrogen synthesis inhibition in rats (uterine weight and ovarian steroid concentrations)
Type: in vivo, female Wistar rats
Conditions: 30 ppm in feed (approximately 3 mg/kg/day), ovaries
Method: Test compounds were administered for seven days either daily by gavage in corn oil or as a component of the diet. Control animals received either corn oil or diet without the test compound. Beginning on the fourth day of the test, all animals treated with the test compound and one half of the control animals were given a subcutaneous injection of 1.0 mg of testosterone propionate in corn oil. The remaining control animals received only an equivalent volume of corn oil.
After two hours, the animals were killed by decapitation. Uteri were isolated, trimmed of extraneous connective tissue, and weighed. […] In the control animals treated with testosterone propionate, estrogens produced by aromatization stimulated the uterus resulting in an increase in weight.
The ovarian steroids were extracted with 1.5 ml of 9:1 (v/v) toluene/ethanol to which had been added 25 to 100 mcg each of unlabelled estradiol, estriol, and estrone, and approximately 1000 dpm of [^14 C]-estradiol. The samples were vortexed, centrifuged at 500×g for 10 minutes, and the organic phase was transferred to a conical vial. Two additional extractions were performed on the residue in the same way. The pooled organic extracts were evaporated for subsequent thin-layer chromatography.
Ovarian proteins were precipitated by the addition of 5.0 ml of ethanol to the remaining aqueous phase. After an overnight incubation at 4° C., the samples were centrifuged at 1500×g for 10 minutes. The supernatant was discarded, and the pellet was dissolved in 0.3N potassium hydroxide.
The organic residue from each above extraction was redissolved in 9:1 (v/v) dichloromethane/methanol. The solution of each sample was applied to separate silica gel thin layer chromatography plates which contained a fluorescent indicator. The plates were developed in the first dimension with 160:38:1.5:0.5 (v/v/v/v) dichloromethane/ethyl acetate/methanol/acetic acid to within 3 cm of the top of the plate. After air-drying, the plate was developed in the second dimension with 180:19:1 (v/v/v) dichloromethane/methanol/ammonium hydroxide. The plate was air-dried and viewed under 254 nm UV light.
The visible spots were marked and the plates were sprayed with primulin (0.001% in 4:1 v/v acetone/water) according to the method of Wright, J. Chromatography, 59, 220 (1971) which allowed for the identification of additional steroids under 365 nm UV light. The spots were scraped from the plate using a glass wool plugged Pasteur pipet attached to a vacuum line. The steroids were eluted directly into scintillation vials by the addition of 0.2 ml of dichloromethane followed by two washes each of 2.0 ml of methanol. The organic solvent was evaporated and 10.0 ml of scintillation fluid (Beckman Ready Solv-NA) was added to the vials. Samples were analyzed by liquid scintillation spectrometry. Corrections were made based on the recoveries of the [^14 C]-steroid. Steroid concentrations are expressed as femtomoles per milligram protein.

Row | Structure (SMILES) | Mean Steroid Concentration, estradiol | Mean Steroid Concentration, estriol
53 | Clc1ccc(C(c2ccc(Cl)cc2)n2cnnc2)cc1 [4-[bis(4-chlorophenyl)methyl]-4H--1,2,4-triazole] | 0.46 femtomoles per milligram of protein | 0.60 femtomoles per milligram of protein

Same assay, conditions: 30 ppm in feed (approximately 3 mg/kg/day), testosterone propionate-treated rats

Row | Structure (SMILES) | Mean Uterine Weight [mg]
54 | Clc1ccc(C(c2ccc(Cl)cc2)(c2cncnc2)n2ccnc2)cc1 [5-[bis(4-chlorophenyl)-1H--imidazol-1-ylmethyl]pyrimidine] | 107.5
55 | COc1ccccc1C(c1ccccc1)n1ccnc1 (stereo not drawn) [1-[(2-methoxyphenyl)phenylmethyl]-1H--imidazole nitrate] | 176.0
56 | Clc1ccc(C(c2ccc(Cl)cc2)n2cnnc2)cc1 [4-[bis(4-chlorophenyl)methyl]-4H--1,2,4-triazole] | 113.3

Same assay, conditions: 300 ppm in feed (approximately 30 mg/kg/day), ovaries

Row | Structure (SMILES) | Mean Steroid Concentration, estradiol | Mean Steroid Concentration, estriol | Mean Steroid Concentration, estrone
57 | Clc1ccc(C(c2ccc(Cl)cc2)n2cnnc2)cc1 [4-[bis(4-chlorophenyl)methyl]-4H--1,2,4-triazole] | 0.48 femtomoles per milligram of protein | 0.64 femtomoles per milligram of protein | 0.10 femtomoles per milligram of protein

Same assay, conditions: 300 ppm in feed (approximately 30 mg/kg/day), testosterone propionate-treated rats

Row | Structure (SMILES) | Mean Uterine Weight [mg]
58 | Clc1ccc(C(c2ccc(Cl)cc2)(c2cncnc2)n2ccnc2)cc1 [5-[bis(4-chlorophenyl)-1H--imidazol-1-ylmethyl]pyrimidine] | 87.6
59 | COc1ccccc1C(c1ccccc1)n1ccnc1 (stereo not drawn) [1-[(2-methoxyphenyl)phenylmethyl]-1H--imidazole nitrate] | 212.6
60 | Clc1ccc(C(c2ccc(Cl)cc2)n2cnnc2)cc1 [4-[bis(4-chlorophenyl)methyl]-4H--1,2,4-triazole] | 97.3

From patent US4755526A, “Method of inhibiting aromatase” (Eli Lilly and Company, priority 1984, dated 1988)
